# Experimental data as given in patent US12281080B2, “Quinoline-based compounds and methods of inhibiting CDK8/19” (University of South Carolina, priority 2018, dated 2025).
# Assays:
# NIM1 (MGC42105) = NIM1 (MGC42105) (Homo sapiens (Human), UniProt Q8IY84); experiment: KINOMEscan scanMAX; type: binding; settings: 2000 nM; read-out: Percent Control
# [1] = biological target: JAK2(JH1domain-catalytic) (Homo sapiens (Human), UniProt O60674); experiment: KINOMEscan scanMAX; type: binding; settings: 2000 nM; read-out: Percent Control
# AMPK-alpha1 (PRKAA1) = AMPK-alpha1 (PRKAA1) (Homo sapiens (Human), UniProt Q13131); experiment: KINOMEscan scanMAX; type: binding; settings: 2000 nM; read-out: Percent Control
# EPHA7 = EPHA7 (Homo sapiens (Human), UniProt Q15375); experiment: KINOMEscan scanMAX; type: binding; settings: 2000 nM; read-out: Percent Control
# [2] = biological target: ABL1(E255K)-phosphorylated (Homo sapiens (Human), UniProt P00519, E255K); experiment: KINOMEscan scanMAX; type: binding; settings: 2000 nM; read-out: Percent Control
# [3] = biological target: ABL1(H396P)-nonphosphorylated (Homo sapiens (Human), UniProt P00519, H396P); experiment: KINOMEscan scanMAX; type: binding; settings: 2000 nM; read-out: Percent Control
# MAP4K3 = MAP4K3 (Homo sapiens (Human), UniProt Q8IVH8); experiment: KINOMEscan scanMAX; type: binding; settings: 2000 nM; read-out: Percent Control
# PLK2 = PLK2 (Homo sapiens (Human), UniProt Q9NYY3); experiment: KINOMEscan scanMAX; type: binding; settings: 2000 nM; read-out: Percent Control
# DAPK1 = DAPK1 (Homo sapiens (Human), UniProt P53355); experiment: KINOMEscan scanMAX; type: binding; settings: 2000 nM; read-out: Percent Control
# CSK = CSK (Homo sapiens (Human), UniProt P41240); experiment: KINOMEscan scanMAX; type: binding; settings: 2000 nM; read-out: Percent Control
# TNNI3K = TNNI3K (Homo sapiens (Human), UniProt Q59H18); experiment: KINOMEscan scanMAX; type: binding; settings: 2000 nM; read-out: Percent Control
# CAMK2A = CAMK2A (Homo sapiens (Human), UniProt Q9UQM7); experiment: KINOMEscan scanMAX; type: binding; settings: 2000 nM; read-out: Percent Control
# [4] = Metabolic stability in human hepatocytes; type: in vitro ADME; settings: 2 μM, 37° C.
# PIK3CA = PIK3CA (Homo sapiens (Human), UniProt P42336); experiment: KINOMEscan scanMAX; type: binding; settings: 2000 nM; read-out: Percent Control
# PIK3C2G = PIK3C2G (Homo sapiens (Human), UniProt O75747); experiment: KINOMEscan scanMAX; type: binding; settings: 2000 nM; read-out: Percent Control
# MST3 (STK24) = MST3 (STK24) (Homo sapiens (Human), UniProt Q9Y6E0); experiment: KINOMEscan scanMAX; type: binding; settings: 2000 nM; read-out: Percent Control
# EPHB1 = EPHB1 (Homo sapiens (Human), UniProt P54762); experiment: KINOMEscan scanMAX; type: binding; settings: 2000 nM; read-out: Percent Control
# PIP5K2B (PIP4K2B) = PIP5K2B (PIP4K2B) (Homo sapiens (Human), UniProt P78356); experiment: KINOMEscan scanMAX; type: binding; settings: 2000 nM; read-out: Percent Control
# RIOK3 = RIOK3 (Homo sapiens (Human), UniProt O14730); experiment: KINOMEscan scanMAX; type: binding; settings: 2000 nM; read-out: Percent Control
# NEK10 = NEK10 (Homo sapiens (Human), UniProt Q6ZWH5); experiment: KINOMEscan scanMAX; type: binding; settings: 2000 nM; read-out: Percent Control
# FAK (PTK2) = FAK (PTK2) (Homo sapiens (Human), UniProt Q05397); experiment: KINOMEscan scanMAX; type: binding; settings: 2000 nM; read-out: Percent Control
# CAMK1G = CAMK1G (Homo sapiens (Human), UniProt Q96NX5); experiment: KINOMEscan scanMAX; type: binding; settings: 2000 nM; read-out: Percent Control
# DCAMKL2 (DCLK2) = DCAMKL2 (DCLK2) (Homo sapiens (Human), UniProt Q8N568); experiment: KINOMEscan scanMAX; type: binding; settings: 2000 nM; read-out: Percent Control
# [5] = biological target: ABL1(F317I)-phosphorylated (Homo sapiens (Human), UniProt P00519, F317I); experiment: KINOMEscan scanMAX; type: binding; settings: 2000 nM; read-out: Percent Control
# PIKFYVE = PIKFYVE (Homo sapiens (Human), UniProt Q9Y2I7); experiment: KINOMEscan scanMAX; type: binding; settings: 2000 nM; read-out: Percent Control
# DRAK2 (STK17B) = DRAK2 (STK17B) (Homo sapiens (Human), UniProt O94768); experiment: KINOMEscan scanMAX; type: binding; settings: 2000 nM; read-out: Percent Control
# TTK = TTK (Homo sapiens (Human), UniProt P33981); experiment: KINOMEscan scanMAX; type: binding; settings: 2000 nM; read-out: Percent Control
# DMPK2 (CDC42BPG) = DMPK2 (CDC42BPG) (Homo sapiens (Human), UniProt Q6DT37); experiment: KINOMEscan scanMAX; type: binding; settings: 2000 nM; read-out: Percent Control
# [6] = system: 468 human kinases and disease relevant mutant variants; experiment: KINOMEscan scanMAX panel, whole panel; type: binding; settings: 2,000 nM; CDK2, 3, 4, 5, 7, 9, 11A, 11B, 13, 14, 15, 16, 17, 18, CDKL1, CDKL3, CDKL5
# CSNK2A1 = CSNK2A1 (Homo sapiens (Human), UniProt P68400); experiment: KINOMEscan scanMAX; type: binding; settings: 2000 nM; read-out: Percent Control
# DAPK3 = DAPK3 (Homo sapiens (Human), UniProt O43293); experiment: KINOMEscan scanMAX; type: binding; settings: 2000 nM; read-out: Percent Control
# MLCK (MYLK3) = MLCK (MYLK3) (Homo sapiens (Human), UniProt Q32MK0); experiment: KINOMEscan scanMAX; type: binding; settings: 2000 nM; read-out: Percent Control
# LOK (STK10) = LOK (STK10) (Homo sapiens (Human), UniProt O94804); experiment: KINOMEscan scanMAX; type: binding; settings: 2000 nM; read-out: Percent Control
# MYLK = MYLK (Homo sapiens (Human), UniProt Q15746); experiment: KINOMEscan scanMAX; type: binding; settings: 2000 nM; read-out: Percent Control
# TGFBR1 = TGFBR1 (Homo sapiens (Human), UniProt P36897); experiment: KINOMEscan scanMAX; type: binding; settings: 2000 nM; read-out: Percent Control
# PIK3CA(E542K) = PIK3CA(E542K) (Homo sapiens (Human), UniProt P42336, E542K); experiment: KINOMEscan scanMAX; type: binding; settings: 2000 nM; read-out: Percent Control
# GRK2 (ADRBK1) = GRK2 (ADRBK1) (Homo sapiens (Human), UniProt P25098); experiment: KINOMEscan scanMAX; type: binding; settings: 2000 nM; read-out: Percent Control
# CLK4 = CLK4 (Homo sapiens (Human), UniProt Q9HAZ1); experiment: KINOMEscan scanMAX; type: binding; settings: 2000 nM; read-out: Percent Control
# MST2 (STK3) = MST2 (STK3) (Homo sapiens (Human), UniProt Q13188); experiment: KINOMEscan scanMAX; type: binding; settings: 2000 nM; read-out: Percent Control
# Sequence of EPHB1 (P54762 18-984): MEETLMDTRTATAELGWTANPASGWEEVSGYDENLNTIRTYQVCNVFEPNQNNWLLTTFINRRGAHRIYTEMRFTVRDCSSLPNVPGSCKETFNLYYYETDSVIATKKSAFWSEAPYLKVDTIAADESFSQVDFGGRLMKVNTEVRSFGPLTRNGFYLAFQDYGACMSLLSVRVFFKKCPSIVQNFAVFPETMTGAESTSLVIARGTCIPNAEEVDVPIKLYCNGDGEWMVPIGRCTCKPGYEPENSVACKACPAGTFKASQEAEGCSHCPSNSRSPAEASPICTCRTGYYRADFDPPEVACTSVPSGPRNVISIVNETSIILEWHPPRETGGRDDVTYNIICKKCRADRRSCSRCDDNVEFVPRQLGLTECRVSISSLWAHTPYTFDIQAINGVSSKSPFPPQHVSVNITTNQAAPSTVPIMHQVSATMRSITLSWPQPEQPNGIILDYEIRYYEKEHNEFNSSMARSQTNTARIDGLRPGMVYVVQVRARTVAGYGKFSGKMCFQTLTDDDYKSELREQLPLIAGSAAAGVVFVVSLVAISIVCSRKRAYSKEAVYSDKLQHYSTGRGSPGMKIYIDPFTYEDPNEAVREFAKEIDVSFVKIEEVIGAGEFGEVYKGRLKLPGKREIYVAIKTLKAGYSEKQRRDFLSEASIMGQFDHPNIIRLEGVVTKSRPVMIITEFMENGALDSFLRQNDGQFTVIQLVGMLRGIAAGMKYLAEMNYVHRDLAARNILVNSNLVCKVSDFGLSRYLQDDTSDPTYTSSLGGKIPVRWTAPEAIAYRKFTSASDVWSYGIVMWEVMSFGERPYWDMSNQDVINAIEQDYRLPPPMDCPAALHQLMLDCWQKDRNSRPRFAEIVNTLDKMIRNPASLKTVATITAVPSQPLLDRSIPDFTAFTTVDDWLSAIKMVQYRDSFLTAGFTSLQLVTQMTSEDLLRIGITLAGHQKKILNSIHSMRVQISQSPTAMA
# Sequence of JAK2(JH1domain-catalytic) (O60674 849-1124): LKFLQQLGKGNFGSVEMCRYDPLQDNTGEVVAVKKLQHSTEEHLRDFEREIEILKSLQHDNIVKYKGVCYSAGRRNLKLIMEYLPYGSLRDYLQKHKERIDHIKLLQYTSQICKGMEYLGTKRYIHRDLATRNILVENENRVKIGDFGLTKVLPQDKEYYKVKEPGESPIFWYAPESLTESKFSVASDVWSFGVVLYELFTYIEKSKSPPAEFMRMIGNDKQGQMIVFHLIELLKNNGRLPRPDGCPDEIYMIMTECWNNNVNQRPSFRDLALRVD
# Sequence of PIK3C2G (O75747 whole entry): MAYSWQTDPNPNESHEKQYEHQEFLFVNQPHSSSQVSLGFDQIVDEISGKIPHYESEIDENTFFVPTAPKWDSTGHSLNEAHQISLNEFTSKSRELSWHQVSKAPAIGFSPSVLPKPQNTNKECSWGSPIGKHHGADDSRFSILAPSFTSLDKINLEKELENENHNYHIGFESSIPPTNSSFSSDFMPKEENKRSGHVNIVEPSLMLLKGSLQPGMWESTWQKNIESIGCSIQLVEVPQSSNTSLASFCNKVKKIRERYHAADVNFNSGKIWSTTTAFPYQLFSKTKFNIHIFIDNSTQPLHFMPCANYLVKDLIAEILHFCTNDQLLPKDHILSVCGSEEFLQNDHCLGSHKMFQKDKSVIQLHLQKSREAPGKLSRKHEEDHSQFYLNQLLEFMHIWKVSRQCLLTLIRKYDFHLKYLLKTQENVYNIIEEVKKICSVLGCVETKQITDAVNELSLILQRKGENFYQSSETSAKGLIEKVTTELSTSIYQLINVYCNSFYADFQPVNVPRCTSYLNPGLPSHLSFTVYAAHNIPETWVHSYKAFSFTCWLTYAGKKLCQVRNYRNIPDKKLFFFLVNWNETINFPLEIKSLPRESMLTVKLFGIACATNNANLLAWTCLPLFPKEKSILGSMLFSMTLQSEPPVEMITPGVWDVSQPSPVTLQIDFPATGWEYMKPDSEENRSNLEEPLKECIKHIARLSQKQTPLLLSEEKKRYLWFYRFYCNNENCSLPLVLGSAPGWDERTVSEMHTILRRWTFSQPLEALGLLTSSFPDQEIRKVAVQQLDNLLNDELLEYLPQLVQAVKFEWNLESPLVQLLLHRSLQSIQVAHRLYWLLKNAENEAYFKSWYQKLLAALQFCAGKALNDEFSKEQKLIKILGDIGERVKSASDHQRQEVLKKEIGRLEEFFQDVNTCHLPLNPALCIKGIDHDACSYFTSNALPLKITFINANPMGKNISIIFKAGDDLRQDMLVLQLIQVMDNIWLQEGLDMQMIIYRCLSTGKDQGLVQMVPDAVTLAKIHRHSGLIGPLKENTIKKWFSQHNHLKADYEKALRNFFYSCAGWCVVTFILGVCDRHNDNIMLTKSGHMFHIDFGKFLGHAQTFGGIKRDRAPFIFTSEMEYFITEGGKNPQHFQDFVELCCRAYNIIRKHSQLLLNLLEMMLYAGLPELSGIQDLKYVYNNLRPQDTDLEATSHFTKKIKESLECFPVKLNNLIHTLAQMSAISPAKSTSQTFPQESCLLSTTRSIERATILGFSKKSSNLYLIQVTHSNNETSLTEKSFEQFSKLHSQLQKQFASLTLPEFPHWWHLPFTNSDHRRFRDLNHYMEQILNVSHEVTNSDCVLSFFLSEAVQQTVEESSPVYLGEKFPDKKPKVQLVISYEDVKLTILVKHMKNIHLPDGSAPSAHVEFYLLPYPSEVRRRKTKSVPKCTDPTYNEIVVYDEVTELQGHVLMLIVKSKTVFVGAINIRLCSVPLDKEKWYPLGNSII
# Sequence of LOK (STK10) (O94804 whole entry): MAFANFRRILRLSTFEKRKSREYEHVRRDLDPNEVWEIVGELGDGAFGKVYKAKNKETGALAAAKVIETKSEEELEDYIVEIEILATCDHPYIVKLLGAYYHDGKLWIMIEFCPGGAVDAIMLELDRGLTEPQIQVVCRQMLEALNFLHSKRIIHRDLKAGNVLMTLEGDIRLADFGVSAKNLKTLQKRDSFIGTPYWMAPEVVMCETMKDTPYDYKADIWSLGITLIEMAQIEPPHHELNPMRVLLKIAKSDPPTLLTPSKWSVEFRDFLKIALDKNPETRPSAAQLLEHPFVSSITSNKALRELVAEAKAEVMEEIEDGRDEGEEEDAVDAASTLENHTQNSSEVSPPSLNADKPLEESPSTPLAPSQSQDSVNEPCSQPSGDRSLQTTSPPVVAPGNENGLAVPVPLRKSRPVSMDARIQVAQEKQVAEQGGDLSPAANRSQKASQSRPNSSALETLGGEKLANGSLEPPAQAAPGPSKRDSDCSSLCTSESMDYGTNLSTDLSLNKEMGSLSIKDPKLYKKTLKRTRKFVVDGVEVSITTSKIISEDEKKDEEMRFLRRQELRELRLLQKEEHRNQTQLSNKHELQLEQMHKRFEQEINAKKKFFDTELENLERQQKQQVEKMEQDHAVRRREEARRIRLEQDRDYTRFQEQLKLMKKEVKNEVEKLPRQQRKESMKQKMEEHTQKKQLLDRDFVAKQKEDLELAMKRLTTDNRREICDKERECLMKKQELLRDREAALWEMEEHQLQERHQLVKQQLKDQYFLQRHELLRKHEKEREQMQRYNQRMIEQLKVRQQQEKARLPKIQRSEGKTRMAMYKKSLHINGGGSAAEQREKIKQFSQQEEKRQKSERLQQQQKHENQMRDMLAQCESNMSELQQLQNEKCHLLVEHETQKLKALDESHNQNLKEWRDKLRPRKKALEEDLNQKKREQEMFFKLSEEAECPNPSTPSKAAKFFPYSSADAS
# Sequence of FAK (PTK2) (Q05397 whole entry): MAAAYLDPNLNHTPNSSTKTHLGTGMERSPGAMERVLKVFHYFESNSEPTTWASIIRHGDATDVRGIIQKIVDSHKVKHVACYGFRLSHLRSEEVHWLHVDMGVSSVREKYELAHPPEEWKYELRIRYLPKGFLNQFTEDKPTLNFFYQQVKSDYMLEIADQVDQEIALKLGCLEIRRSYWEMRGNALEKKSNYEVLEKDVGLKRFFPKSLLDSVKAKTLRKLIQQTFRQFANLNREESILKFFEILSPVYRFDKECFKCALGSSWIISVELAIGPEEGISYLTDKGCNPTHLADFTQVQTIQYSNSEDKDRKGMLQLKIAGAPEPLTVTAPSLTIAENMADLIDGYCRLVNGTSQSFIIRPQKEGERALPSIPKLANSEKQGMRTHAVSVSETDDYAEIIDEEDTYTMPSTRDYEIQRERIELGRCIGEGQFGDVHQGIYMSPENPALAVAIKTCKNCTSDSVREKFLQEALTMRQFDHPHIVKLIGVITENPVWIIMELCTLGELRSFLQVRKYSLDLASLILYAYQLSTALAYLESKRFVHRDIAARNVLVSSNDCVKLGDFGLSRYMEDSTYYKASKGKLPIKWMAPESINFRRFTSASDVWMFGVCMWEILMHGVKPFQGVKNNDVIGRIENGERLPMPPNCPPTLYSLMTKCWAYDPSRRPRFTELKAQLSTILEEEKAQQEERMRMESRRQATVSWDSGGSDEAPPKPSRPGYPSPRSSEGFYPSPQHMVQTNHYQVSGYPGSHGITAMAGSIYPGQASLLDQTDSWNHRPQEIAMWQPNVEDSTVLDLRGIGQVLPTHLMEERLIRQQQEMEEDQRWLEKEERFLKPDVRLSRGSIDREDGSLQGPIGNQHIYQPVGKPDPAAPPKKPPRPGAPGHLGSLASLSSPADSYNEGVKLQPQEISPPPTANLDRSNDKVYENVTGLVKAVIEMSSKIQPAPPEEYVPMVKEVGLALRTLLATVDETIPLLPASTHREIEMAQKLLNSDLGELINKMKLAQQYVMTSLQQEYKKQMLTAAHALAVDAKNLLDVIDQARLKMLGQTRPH
smiles,measurement,setting,value
"CN1CCN(C(=O)c2ccc3cc(CCNc4ccnc5ccc(C#N)cc45)ccc3c2)CC1 [compound 6148, 4-((2-(6-(4-methylpiperazine-1-carbonyl)naphthalen-2-yl)ethyl)amino)quinoline-6-carbonitrile]",remaining binding at 2 µM,NIM1 (MGC42105),67%
same,remaining binding at 2 µM,[1],56%
same,remaining binding at 2 µM,AMPK-alpha1 (PRKAA1),94%
same,remaining binding at 2 µM,EPHA7,91%
same,remaining binding at 2 µM,[2],93%
same,remaining binding at 2 µM,[3],73%
same,remaining binding at 2 µM,MAP4K3,100%
same,remaining binding at 2 µM,PLK2,80%
same,remaining binding at 2 µM,DAPK1,100%
same,remaining binding at 2 µM,CSK,85%
same,remaining binding at 2 µM,TNNI3K,100%
same,remaining binding at 2 µM,CAMK2A,100%
same,Metabolic conversion rate in cultured hepatocytes,[4],greatly decreased relative to Senexin B
same,remaining binding at 2 µM,PIK3CA,90%
same,remaining binding at 2 µM,PIK3C2G,57%
same,remaining binding at 2 µM,MST3 (STK24),100%
same,remaining binding at 2 µM,EPHB1,92%
same,remaining binding at 2 µM,PIP5K2B (PIP4K2B),85%
same,remaining binding at 2 µM,RIOK3,85%
same,remaining binding at 2 µM,NEK10,41%
same,remaining binding at 2 µM,FAK (PTK2),89%
same,remaining binding at 2 µM,CAMK1G,92%
same,remaining binding at 2 µM,DCAMKL2 (DCLK2),94%
same,remaining binding at 2 µM,[5],89%
same,remaining binding at 2 µM,PIKFYVE,86%
same,remaining binding at 2 µM,DRAK2 (STK17B),87%
same,remaining binding at 2 µM,TTK,72%
same,remaining binding at 2 µM,DMPK2 (CDC42BPG),83%
same,POC of the other members of the CDK family in the scanMAX panel,[6],≥ 64 POC
same,remaining binding at 2 µM,CSNK2A1,56%
same,remaining binding at 2 µM,DAPK3,95%
same,remaining binding at 2 µM,MLCK (MYLK3),100%
same,remaining binding at 2 µM,LOK (STK10),94%
same,remaining binding at 2 µM,MYLK,83%
same,remaining binding at 2 µM,TGFBR1,100%
same,remaining binding at 2 µM,PIK3CA(E542K),55%
same,remaining binding at 2 µM,GRK2 (ADRBK1),63%
same,remaining binding at 2 µM,CLK4,69%
same,remaining binding at 2 µM,MST2 (STK3),100%
